Source: ChEMBL document CHEMBL1148998, “Limonoids from the seeds of Melia azedarach” (1986)

Columns and labels:
Salmonella typhimurium [1] = assay: Antibacterial activity against Salmonella Typhimurium at 2 mg/10 ml dimethylformamide; type: functional, Salmonella enterica subsp. enterica serovar Typhimurium
Escherichia coli [2] = assay: Antibacterial activity against Escherichia coli at 6 mg/10 ml dimethylformamide; type: functional
Salmonella typhimurium [3] = assay: Antibacterial activity against Salmonella Typhimurium at 4 mg/10 ml dimethylformamide; type: functional, Salmonella enterica subsp. enterica serovar Typhimurium
Vibrio cholerae [4] = assay: Antibacterial activity against Vibrio cholerae at 2 mg/10 ml dimethylformamide; type: functional
Escherichia coli [5] = assay: Antibacterial activity against Escherichia coli at 10 mg/10 ml dimethylformamide; type: functional
Vibrio cholerae [6] = assay: Antibacterial activity against Vibrio cholerae at 6 mg/10 ml dimethylformamide; type: functional
Escherichia coli [7] = assay: Antibacterial activity against Escherichia coli at 8 mg/10 ml dimethylformamide; type: functional
Klebsiella pneumoniae [8] = assay: Antibacterial activity against Klebsiella pneumoniae at 6 mg/10 ml dimethylformamide; type: functional
Escherichia coli [9] = assay: Antibacterial activity against Escherichia coli at 2 mg/10 ml dimethylformamide; type: functional
Salmonella typhimurium [10] = assay: Antibacterial activity against Salmonella Typhimurium at 8 mg/10 ml dimethylformamide; type: functional, Salmonella enterica subsp. enterica serovar Typhimurium
Klebsiella pneumoniae [11] = assay: Antibacterial activity against Klebsiella pneumoniae at 4 mg/10 ml dimethylformamide; type: functional
Vibrio cholerae [12] = assay: Antibacterial activity against Vibrio cholerae at 8 mg/10 ml dimethylformamide; type: functional
Salmonella typhimurium [13] = assay: Antibacterial activity against Salmonella Typhimurium at 6 mg/10 ml dimethylformamide; type: functional, Salmonella enterica subsp. enterica serovar Typhimurium
Salmonella typhimurium [14] = assay: Antibacterial activity against Salmonella Typhimurium at 10 mg/10 ml dimethylformamide; type: functional, Salmonella enterica subsp. enterica serovar Typhimurium
Escherichia coli [15] = assay: Antibacterial activity against Escherichia coli at 4 mg/10 ml dimethylformamide; type: functional
Klebsiella pneumoniae [16] = assay: Antibacterial activity against Klebsiella pneumoniae at 2 mg/10 ml dimethylformamide; type: functional
Klebsiella pneumoniae [17] = assay: Antibacterial activity against Klebsiella pneumoniae at 8 mg/10 ml dimethylformamide; type: functional
Klebsiella pneumoniae [18] = assay: Antibacterial activity against Klebsiella pneumoniae at 10 mg/10 ml dimethylformamide; type: functional
Vibrio cholerae [19] = assay: Antibacterial activity against Vibrio cholerae at 4 mg/10 ml dimethylformamide; type: functional
Vibrio cholerae [20] = assay: Antibacterial activity against Vibrio cholerae at 10 mg/10 ml dimethylformamide; type: functional

| Structure (SMILES) | inhibition zone (IZ) (Salmonella typhimurium [1]) | inhibition zone (IZ) (Escherichia coli [2]) | inhibition zone (IZ) (Salmonella typhimurium [3]) | inhibition zone (IZ) (Vibrio cholerae [4]) | inhibition zone (IZ) (Escherichia coli [5]) | inhibition zone (IZ) (Vibrio cholerae [6]) | inhibition zone (IZ) (Escherichia coli [7]) | inhibition zone (IZ) (Klebsiella pneumoniae [8]) | inhibition zone (IZ) (Escherichia coli [9]) | inhibition zone (IZ) (Salmonella typhimurium [10]) | inhibition zone (IZ) (Klebsiella pneumoniae [11]) | inhibition zone (IZ) (Vibrio cholerae [12]) | inhibition zone (IZ) (Salmonella typhimurium [13]) | inhibition zone (IZ) (Salmonella typhimurium [14]) | inhibition zone (IZ) (Escherichia coli [15]) | inhibition zone (IZ) (Klebsiella pneumoniae [16]) | inhibition zone (IZ) (Klebsiella pneumoniae [17]) | inhibition zone (IZ) (Klebsiella pneumoniae [18]) | inhibition zone (IZ) (Vibrio cholerae [19]) | inhibition zone (IZ) (Vibrio cholerae [20]) |
| --- | --- | --- | --- | --- | --- | --- | --- | --- | --- | --- | --- | --- | --- | --- | --- | --- | --- | --- | --- | --- |
| CC(=O)OC1=C2C(C)(C)[C@@H](O[C@@H]3O[C@@H](C)[C@H](O)[C@@H](O)[C@H]3O)C=C[C@]2(C)[C@H]2[C@H](O)C[C@@]3(C)[C@H](c4ccoc4)C[C@H]4O[C@]43[C@]2(C)C1=O | 11 mm | 12 mm | 12 mm | 13 mm | 15 mm | 17 mm | 14 mm | 14 mm | 10 mm | 15 mm | 12 mm | 18 mm | 13 mm | 16 mm | 11 mm | 10 mm | 16 mm | 18 mm | 15 mm | 20 mm |
| CN[C@@H]1[C@H](O[C@H]2[C@H](O[C@H]3[C@H](O)[C@@H](O)[C@H](N=C(N)N)[C@@H](O)[C@@H]3N=C(N)N)O[C@@H](C)[C@]2(O)C=O)O[C@@H](CO)[C@H](O)[C@H]1O [STREPTOMYCIN] | – | – | – | – | 8 mm | – | – | – | – | – | – | – | – | 9 mm | – | – | – | 10 mm | – | 12 mm |
